For 103 molecules, cytotoxicity results are on record in ChEMBL document CHEMBL3507680, “University of Dundee, Gates Library screen for HepG2 cell viability”.

This series is described as follows: Human HepG2 cell viability assay in 384 well format. Type of series: toxicity, cell-based. Details: dose 125 nL, time 70.5 hour; concentration not given beside the values. The note with it: HepG2 cells, read-out: Inhibition.

As for `CC1CCCN(Cc2ccc(CNC(=O)NCc3ccncc3)cc2)C1` (stereo not drawn), the cytotoxicity at 70.5 h was -5.32%.
Then `Cc1ncc2c(n1)CN(Cc1cn3ccsc3n1)CC2`, with -0.474%; and `COc1ccc(C(CC(=O)O)NC(=O)c2cc(C)on2)cc1` (stereo not drawn), with -1.84%; and `CCC(NC(=O)NCC(=O)Nc1ccc(F)cc1)c1ccncc1` (stereo not drawn), with 2.31%.
The same measure for `CCNC(=O)Cc1ccc(NC(=O)NC(CC)c2ccncc2)cc1` (stereo not drawn): -2.39%.
Then `CCOC(=O)c1nnc2ccccc2c1N1CCN(C(C)C)CC1`, with -4.21%.
With `CCOCC(=O)NCC1(NC(C)c2ccccc2)CCOCC1` (stereo not drawn), the cytotoxicity at 70.5 h is -8.52%.
The same measure for `COc1cccc(S(=O)(=O)CCN2CCCC2c2ccc[nH]2)c1` (stereo not drawn): -16.8%.
Then `CC(=O)N1CCN(CCNS(=O)(=O)c2ccc(F)c(F)c2)CC1`, with 2.27%; and `O=C(NCCCNC(=O)c1cccc(O)c1)Nc1ccc(Cl)cc1`, with -0.328%; and `CCNC(=O)NC(=O)CNC1(c2noc(C)n2)CCCC1`, with 16.6%.
The same measure for `NC(=O)C(CNC(=O)Cc1ccsc1)Cc1ccc(F)cc1` (stereo not drawn): -3.39%; for `CC(c1nc(C2CC2)no1)N1CCN(CC(=O)N2CCOCC2)CC1` (stereo not drawn): 0.558%.
For `CCn1cnnc1C1CCN(C(=O)c2c(C)oc(C)c2C)CC1`, the cytotoxicity at 70.5 h came out at 0.3%.
Then `CCC(C)NC(=O)NCCC(=O)N1CCN(c2ccccn2)CC1` (stereo not drawn), with -0.377%; and `CCn1cnnc1C1CCN(C(=O)c2ccc3ccccc3n2)CC1`, with -3.84%; and `CCn1cnnc1C1CCN(C(=O)c2cccc(-n3cccc3)c2)CC1`, with -2.68%.
Regarding `CC(C)c1nc(C(=O)N2CCOCC2CC(=O)c2ccco2)cs1` (stereo not drawn), the cytotoxicity at 70.5 h is -2.9%.
Then `Cc1nc(CN2CCN(C(=O)c3scnc3C)CC2)cs1`, with -3.33%; and `COCCCN(CCOC)C(=O)Nc1ccccc1-n1cccn1`, with 2.41%; and `Cc1cnc(CNC2CCc3nc(C(C)C)nn3C2)cn1` (stereo not drawn), with -2.01%.
The same measure for `Cc1cccc(NC(=O)CN(C)C(=O)c2scnc2C)n1`: 0.715%; for `CC(C)c1ccc(C(=O)N2CCOCC2CC(=O)c2ccco2)cn1` (stereo not drawn): -5.67%; for `O=C(C1CCCC1)N1CCC2(CC1)OCCO2`: -1.7%.
The same measure for `CCN(CC)C(=O)CN(C)C(=O)c1ccc(-c2ccsc2)nc1C`: 33.4%; for `O=C(CN1CCCCC1Cn1cncn1)Nc1ccncc1` (stereo not drawn): 3.49%.
Regarding `CN(Cc1cnn(C)c1)C(=O)NC1CCCC1`, the cytotoxicity at 70.5 h is -7.1%.
The same measure for `CCOc1ncccc1NC(=O)c1cc(C)sc1C`: -11%.
`CC(C)CC(=O)N1CCCC1c1ccsc1` (stereo not drawn): the cytotoxicity at 70.5 h is -10.6%.
For `O=C(CCC(=O)N1CCCC1c1ccsc1)N1CCOCC1` (stereo not drawn), the cytotoxicity at 70.5 h was -5.51%.
`O=C(O)c1nnn(-c2cccc(C(F)(F)F)c2)c1C1CC1`: the cytotoxicity at 70.5 h is -3.12%.
The same measure for `Cc1nc(CCNC(=O)Nc2cc(C(F)(F)F)c[nH]c2=O)cs1`: -6.32%; for `CC(C)NC(=O)c1nnn(-c2cccc(F)c2)c1C1CC1`: -6.18%; for `CC(C)CN1CCC(NC(=O)c2ccc(F)cc2Cl)CC1`: -2.96%.
The same measure for `NC(=O)COc1ccc(CNCc2ccc(Cl)c(F)c2)cc1`: -0.573%; for `Cc1nccc(CNC(=O)Nc2cc(C(F)(F)F)c[nH]c2=O)n1`: -5.34%.
Then `Cc1cccc(NCC(=O)Nc2cc(F)ccc2F)c1C(N)=O`, with -8.06%; and `Cc1cc(C)n(CC2CN(CC(=O)Nc3cccnc3)CCO2)n1` (stereo not drawn), with -4.57%.
As to `O=C(CN1CCOC(Cn2cccn2)C1)Nc1cccnc1` (stereo not drawn), the cytotoxicity at 70.5 h is 31.9%.
The same measure for `CCN(CC1CCOC1)C(=O)c1ccc(-c2ccsc2)nc1C` (stereo not drawn): -7.65%; for `CCN(CC(=O)NC(C)C)C(=O)c1ccc(-c2ccsc2)nc1C`: -3.6%; for `O=C(CN1CCCC1Cn1cncn1)Nc1ccnn1C1CCCC1` (stereo not drawn): -4.96%.
Then `Fc1cccc(C2CCCN2Cc2nnnn2C2CC2)c1` (stereo not drawn), with -8.46%; and `Cc1cc(C)n(Cc2cccc(C(=O)NCCSCC(C)(C)O)c2)n1`, with -3.16%; and `Cc1nc(C)n(CC2CN(CC(=O)Nc3ccncc3)CCO2)n1` (stereo not drawn), with -5.56%.
In the case of `CCc1nc(CN(C)C2CCN(Cc3nc(C4CC4)no3)C2)no1` (stereo not drawn), the cytotoxicity at 70.5 h was 31.8%.
Then `CCc1cnc(CN(C)C2CCN(CCCS(=O)(=O)NC)C2)o1` (stereo not drawn), with 2.84%; and `Cc1nn(C)c(N2CCOCC2)c1CNC(c1ccccc1)C1CC1` (stereo not drawn), with 11.3%.
As for `CC(CN1CCOCC1)NC(=O)c1cc(Cl)c2c(c1)OCCO2` (stereo not drawn), the cytotoxicity at 70.5 h stood at 0.172%.
Turning to `Cc1ccc(NC(=O)N(CCO)Cc2ccsc2)cc1`, the cytotoxicity at 70.5 h was -0.584%.
Then `COc1ccc(C2CCCCCN2S(N)(=O)=O)cc1` (stereo not drawn), with 23.5%.
The same measure for `CCS(=O)(=O)N1CCC(Oc2ccc(C#N)cc2)CC1`: 24.1%.
The same measure for `COc1ccc(NC(=O)N(CCO)Cc2ccsc2)c(OC)c1`: 0.461%.
On to `CC(C)(C(=O)NCC(=O)NCc1ccccc1)c1ccccc1F`, for which the cytotoxicity at 70.5 h was found to be 3.35%.
Regarding `CCCS(=O)(=O)N1CCC(Oc2ccc(C#N)cc2)CC1`, the cytotoxicity at 70.5 h is 4.2%.
Then `CC(C)c1nnc2n1CC(CNCc1nc3ccccc3o1)CC2` (stereo not drawn), with 2.4%; and `CC(C)(C)c1n[nH]c(C2CN(C(=O)CCCn3cccn3)CCO2)n1` (stereo not drawn), with 0.387%; and `Cc1noc(C)c1CN1CCC(N(C)Cc2noc(C(C)C)n2)C1` (stereo not drawn), with 5.99%.
As for `Cc1ncccc1CNCC1CCc2nnc(C(C)C)n2C1` (stereo not drawn), the cytotoxicity at 70.5 h is -7.03%.
Consider `O=C(NCCNc1ccccn1)NCC1CCS(=O)(=O)C1` (stereo not drawn), for which the cytotoxicity at 70.5 h stood at 4.42%.
In the case of `Cc1nnc(CN(Cc2cccc(Br)c2)C2CC2)o1`, the cytotoxicity at 70.5 h is -8.25%.
Consider `O=S1(=O)CCC(c2nc(-c3cccc(Br)c3)no2)C1` (stereo not drawn), for which the cytotoxicity at 70.5 h is -8.75%.
For the molecule `Cc1cnn(C2CN(Cc3nnc(-c4ccccc4Cl)o3)C2)c1`, the cytotoxicity at 70.5 h is 5.37%.
The same measure for `Cc1cc(CS(=O)(=O)N(C)C(C)c2ccc(Cl)cc2)on1` (stereo not drawn): -11.1%; for `COC(=O)NCCC(=O)NC(c1ccc(Cl)cc1)C(F)(F)F` (stereo not drawn): -8.05%.
The same measure for `Cc1cc(CNC(=O)CCN2CCN(c3ccccn3)CC2)c(C)o1`: 9.41%; for `COCCN(c1ccncc1)S(=O)(=O)c1cc(C)cc(F)c1`: -10.7%; for `N#CCc1ccc(OCC(=O)NS(=O)(=O)c2ccc(Br)s2)cc1`: 4.36%.
As for `O=C(NCCNc1cnccn1)NCC1CCS(=O)(=O)C1` (stereo not drawn), the cytotoxicity at 70.5 h was -7.83%.
Consider `Cc1ncsc1CNC(=O)CCN1CCN(c2ccccn2)CC1`, for which the cytotoxicity at 70.5 h was -8.25%.
The same measure for `CCNC(=O)CN(Cc1ccoc1)C1CCCCC1`: -9.92%.
The same measure for `COCCN(C)S(=O)(=O)c1cc(C)cc(F)c1`: -5.49%; for `CCN(CCNCc1cccc(C#N)c1)C1CC1`: 10.9%.
The same measure for `Cc1csc(NC(=O)C2(C)CCCO2)n1` (stereo not drawn): -7.86%; for `CC(=O)c1ccc(OCC(=O)NS(=O)(=O)c2ccc(Cl)s2)cc1`: -10.1%; for `CNC(=O)NC(=O)CNC(CC(F)(F)F)c1ccc(F)cc1` (stereo not drawn): 4.15%.
Turning to `CN(C)C(=O)CNC(CC(F)(F)F)c1ccc(Cl)cc1` (stereo not drawn), the cytotoxicity at 70.5 h stood at 0.0833%.
Then `NS(=O)(=O)CCN(CCc1cccc(F)c1)C1CCCC1`, with -0.787%; and `Cc1cccc(N2CCN(C(=O)c3c(C)nn(C)c3C)CC2)c1C`, with -0.882%.
The same measure for `O=C1CC(N(C(=O)COc2ccc(F)cc2F)C2CC2)C(=O)N1` (stereo not drawn): -6.63%.
Then `NC(=O)NC(=O)CCSCc1coc(-c2cccc(Cl)c2)n1`, with -17.3%; and `O=C1CC(N(C(=O)CCc2cc(F)ccc2F)C2CC2)C(=O)N1` (stereo not drawn), with -7.39%; and `Cc1ccccc1S(=O)(=O)NC(=O)C1(c2ccccc2)CCC1`, with -9.55%.
`c1ccc(OCCN2CCC(n3cncn3)CC2)cc1`: the cytotoxicity at 70.5 h was found to be 25.3%.
In the case of `Cc1ccc(S(=O)(=O)NC(=O)C2(c3ccccc3)CCC2)c(C)c1`, the cytotoxicity at 70.5 h is -10.7%.
Then `Cc1ccc(CNC(=O)Cn2c(=O)c3cccnc3n2C)cc1F`, with -12.5%; and `COCCNC(=O)NC1(c2ccccc2F)CC1`, with -5.87%; and `CC1(C)CN=C(N2CCN(CCCN3CCOCC3)CC2)S1`, with -8.84%.
The same measure for `COc1cccc(OCC(=O)N(C)c2cccnc2N(C)C)c1`: -8.02%.
The same measure for `Cc1nc(SC2CCN(c3sccc3C#N)C2=O)oc1C` (stereo not drawn): -1.94%.
Consider `CCOC1CCCN(C(=O)c2ccccc2NCc2cccnc2)C1` (stereo not drawn), for which the cytotoxicity at 70.5 h worked out at 15.9%.
The same measure for `CC1(C)CN=C(N2CCN(CC3CCCCO3)CC2)S1` (stereo not drawn): 0.00251%; for `CN(Cc1ccco1)C(=O)CN1CCN(C)c2ccccc2C1`: -3%; for `COc1cccc2c1N(S(=O)(=O)c1cc(C(=O)O)cs1)CCC2`: -6.55%.
Then `c1ccc(-c2cnc(CNC3CCc4ncnn4C3)o2)cc1` (stereo not drawn), with 0.0931%; and `CCc1nnsc1C(=O)N1CCN(CC(O)C(C)(C)C)CC1` (stereo not drawn), with -10.2%.
Then `CC(NC(=O)N1CCC(CC(N)=O)CC1)c1csc2ccccc12` (stereo not drawn), with -10.8%; and `O=C(Nc1nnn[nH]1)c1ccc(-n2cccc2)c(F)c1`, with -9.42%; and `COCc1cc(N(CC(F)F)C2CC2)n2ncnc2n1`, with -5.91%.
In the case of `O=C(O)c1csc(S(=O)(=O)N2CCCc3cc(OC(F)F)ccc32)c1`, the cytotoxicity at 70.5 h was -10.7%.
Then `Cc1ccccc1CNCC(O)c1ccc(OC(C)C)cc1` (stereo not drawn), with -0.135%.
Then `NC(=O)COc1ccc(CNCc2cc(F)ccc2F)cc1`, with 32.7%; and `CC(NCc1c(C(C)C)nn(C)c1N(C)C)C(=O)NC1CCCC1` (stereo not drawn), with -6.36%.
